The values that follow come from publication PMC10529594, “Strasseriolides display in vitro and in vivo activity against trypanosomal parasites and cause morphological and size defects in Trypanosoma cruzi” (PLOS Neglected Tropical Diseases, 2023).

In series [1] the test system is intracellular T. cruzi amastigotes. Nature of the series: Rate of kill, intracellular T. cruzi amastigotes (CPRG, 96-well). The class given is cell-based, Trypanosoma cruzi. The conditions noted are these: Amastigotes; for EC50: Trypanosoma cruzi. The protocol:
For rate of kill experiments, in vitro activity against intracellular T. cruzi amastigotes was analyzed at early time points: 24, 48 and 72 hours. The standard colorimetric transgenic assay was established in a 96-well format, with serial dilutions of compounds and 0.05% as the final maximal DMSO percentage per well. In these experiments L6 host cells were included as negative controls and CPRG conversion was monitored at 585 nm using a Versamax microplate reader (Molecular devices).

Series [2] deals with transgenic Trypanosoma cruzi Brazil strain expressing firefly luciferase. Briefly: In vivo efficacy, acute T. cruzi infection in BALB/c mice (luciferase imaging). The conditions noted are these: 30 mg/kg i.p. 5 days. As to the method: In vivo experiments were performed at the Anti-infectives Screening Core Services facility of the New York University School of Medicine. The transgenic Trypanosoma cruzi Brazil strain expressing firefly luciferase was used. Groups of five female BALB/c mice were infected with 2 × 10^6 T. cruzi trypomastigotes. […] Quantification is based on luciferase activity of the parasites after i.p. injection of 150 mg/Kg D-luciferin potassium-salt in PBS. Luminescence is measured on the fifth day using an IVIS Lumina II imager.

Series [3] relates to T. b. brucei 427 bloodstream forms. Briefly: Resazurin-based T. b. brucei assay. The class given is cell-based. The conditions noted are these: Trypanosoma brucei, 72 h, read-out: EC50 T. brucei. The protocol: Parasites strains adapted to culture in vitro were used. T. b. brucei Lister 427 bloodstream form parasites (information about the identity and genealogy of this strain is available at The Rockefeller University website) were grown in HMI-9 medium supplemented with 10% heat-inactivated fetal bovine serum (iFBS).
Cells in logarithmic phase of growth were added using a Multidrop dispenser (45 μL, 500 bloodstream T. b. brucei parasites per well) to 384-well Corning assay plates already containing 5 μL of each compound and controls, and incubated for 72 hours at 37°C. 10 μL of resazurin were added per well, and the plates were further incubated for 6 hours at 37°C. The final fluorescence was determined at 550–590 nm. Pentamidine at 40 nM and 0.0067% DMSO were used as […] growth controls, respectively.

Series [4] concerns human macrophage THP-1 cells. Nature of the series: Cytotoxicity in THP-1 macrophages (MTT). The conditions noted are these: for EC50: Homo sapiens, read-out: EC50 THP-1. It is filed as cell-based. As to the method:
Cellular toxicity of compounds in the human macrophage host TPH-1 cell line was determined using the colorimetric MTT-based assay as previously described.
THP-1 cells were seeded at 3 × 10^4 cells/well in 96-well plates and were differentiated to macrophages with 20 ng/ml of PMA treatment for 48 h followed by 24 h incubation in fresh medium. Strasseriolides were added at increasing concentrations up to 50 μM and cells were further incubated at 37°C for 72 h. 10 μL of MTT (5 mg/mL in PBS) were added to each well, and plates were incubated for an additional period of 8 h at 37°C. Formazan crystals were dissolved by adding 50 μL of 20% SDS and absorbance was read at 595 nm using a microplate reader.

The subject of series [5] is T. cruzi epimastigotes. Nature of the series: Microscopy analysis of T. cruzi epimastigotes (DAPI cell cycle, DIC morphology). The conditions noted are these: 72-hour drug exposure, DAPI staining. The class given is cell-based, Trypanosoma cruzi. The protocol:
For morphological phenotypic analysis and further confirmation of cell cycle analysis by FACS, T. cruzi epimastigotes were grown for 72 hours in a 6-well plate in the presence and absence of drugs. Briefly, 1 × 10^6 parasites of each condition were harvested and fixed in 4% p-formaldehyde at 4°C for 20 minutes, washed twice with cold PBS, and placed on poly-L-lysine-coated slides. Followed by dehydration in methanol, parasite samples were stained and mounted with DAPI Prolong. Digital images were acquired with a Leica DMi8 microscope in Tile Scan mode with […] excitation to quantify DAPI stained nuclei and kinetoplasts of the parasite population. Transmitted light microscopy was used to acquire differential interference contrast (DIC) images (> 80 individual cells in each of two independent experiments).

Details of series [6]: method as in PMID 34865639. The conditions noted are these: cited from earlier work.
In series [7] the test system is Plasmodium berghei. Details: method as in PMID 34865639. Conditions: Plasmodium berghei murine model; cited from earlier work.

Molecules are shown by their SMILES. Where “and” joins values, the source holds several entries; their conditions need not be identical. Equal values may be shown once. Read-outs that look alike come from different tables or passages of the source. Where only a bound is given, the exact number is not on record here.

As a reminder, the Hill slope is a measure of the steepness of the concentration-response curve. One may read the EC50 as the concentration at which the effect is half-maximal. `O=C(Cn1ccnc1[N+](=O)[O-])NCc1ccccc1` [Benznidazole, benznidazole]: the Hill slope came to 1.06 in series [1] (24 h), 1.24 in series [1] (48 h) and 1.99 in series [1] (72 h). Besides, the EC50 in series [1] (24 h) is 2.87 µM; in series [1] (48 h), 1.03 µM; in series [1] (72 h), 0.89 µM. Besides, the “Total counts, individual mouse” value in series [2] (30 mg/kg) was 4950000 and 268000 and 48200 and 38100. The “Total counts, Average” value in series [2] (vehicle average 8050000) turned out to be 1330000.
As for `C/C1=C\[C@H](C)[C@@H](O)C[C@@H](O)/C(C)=C/[C@H](C)C[C@@H](C)CC[C@@H]([C@@H](C)C(=O)O)OC(=O)[C@@H](C)C1` [Strasseriolide D, strasseriolide D], in series [3], the EC50 is above 100 µM. Further, the “Selectivity index intracellular L. donovani versus THP-1 cells” value in series [4] is listed as above 37. Further, the EC50 in series [4] (THP-1, 72 h, MTT) was above 500 µM. In series [5] (EC30, average), the “% Cells 0N1K, Average” value amounted to 1.2%; the “% Cells 1N1K1F, Average” value was found to be 57.325%; the “% Cells 1N*1K*1F, Average” value is 6.55%; the “% Cells 1N*2K2F, Average” value is 2.85%. In series [5] (EC30, average), the “% Cells 2N1K, Average” value is listed as 4.5%; the “% Cells 2N2K2F, Average” value amounted to 26.325%; the “% Cells Other, Average” value was 1.25%. For the same compound, in series [5] (EC30, single replicates), the “% Cells 0N1K, individual replicates” value was 0% and 2.4%; the “% Cells 1N1K1F, individual replicates” value is 56.25% and 58.4%; the “% Cells 1N*1K*1F, individual replicates” value was 7.5% and 5.6%; the “% Cells 1N*2K2F, individual replicates” value is 2.5% and 3.2%. For the same compound, in series [5] (EC30, single replicates), the “% Cells 2N1K, individual replicates” value was 5% and 4%; the “% Cells 2N2K2F, individual replicates” value was 26.25% and 26.4%; the “% Cells Other, individual replicates” value was 2.5% and 0%. Moreover, in series [5] (EC70, average), the “% Cells 0N1K, Average” value was 0.4587%; the “% Cells 1N1K1F, Average” value worked out at 62.2955%; the “% Cells 1N*1K*1F, Average” value came out at 3.438%; the “% Cells 1N*2K2F, Average” value came out at 5.902%. In series [5] (EC70, average), the “% Cells 2N1K, Average” value is recorded as 3.953%; the “% Cells 2N2K2F, Average” value is given as 19.5971%; the “% Cells Other, Average” value is on record as 4.355%. For the same compound, in series [5] (EC70, single replicates), the “% Cells 0N1K, individual replicates” value is 0% and 0.9174%; the “% Cells 1N1K1F, individual replicates” value was 56.701% and 67.8899%; the “% Cells 1N*1K*1F, individual replicates” value is 4.124% and 2.752%; the “% Cells 1N*2K2F, individual replicates” value is 7.216% and 4.587%. Besides, in series [5] (EC70, single replicates), the “% Cells 2N1K, individual replicates” value was 5.155% and 2.752%; the “% Cells 2N2K2F, individual replicates” value was 22.6804% and 16.5138%; the “% Cells Other, individual replicates” value was 4.124% and 4.587%. The liver microsome clearance result in series [6] is “low”. Besides, in series [7], the “in vivo antiprotozoal activity” value is on record as “exhibit in vivo antiprotozoal activity”.
`C/C1=C\[C@H](C)CC[C@@H](O)/C(C)=C/[C@H](C)C[C@@H](C)CC[C@@H]([C@@H](C)C(=O)O)OC(=O)[C@@H](C)C1` [Strasseriolide B, strasseriolide B]: the half-maximal effective concentration (EC50) in series [3] amounted to 27 µM; in series [4] (THP-1, 72 h) it was 161 µM. The “Selectivity index intracellular L. donovani versus THP-1 cells” value in series [4] came to 4962.
For the compound `C/C1=C\[C@H](C)CCC(=O)/C(C)=C/[C@H](C)C[C@@H](C)CC[C@@H]([C@@H](C)C(=O)O)OC(=O)[C@@H](C)C1` [Strasseriolide A, strasseriolide A], the EC50 is 273 µM in series [3] and above 125 µM in series [4] (THP-1, 72 h, MTT). In series [4], the “Selectivity index intracellular L. donovani versus THP-1 cells” value was above 8.
